“And” between values parts separate entries of the source, which are not always exact repeats. Equal values may be shown once.

Data set [1] has as its target T1, human histamine H4 receptor (Homo sapiens, UniProt Q9H3N8).
T1 construct: made in house; host or cells: Sf9 cells (membrane preparations)
In words: [3H]histamine displacement assay, membranes of Sf9 cells expressing hH4R with Gαi2 and Gβ1γ2. In kind it is binding. Particulars: Sf9 membranes, mean within 95% CI. The method, then: The affinity of compounds 2–20 for hH4R was evaluated in a binding assay as previously described. [^3H]Histamine was used as a radioligand and hH4R was expressed in Sf9 cells with G protein Gαi2 and Gβ1γ2 subunits. The pharmacological results represented as Ki values are listed in Table 1 (for alicyclic derivatives) and Table 2 (for aliphatic derivatives). […] Results depended on the substituent in the four positions of a triazine (a main structure).
Affinities of all triazine derivatives were determined in a [^3H] histamine (f.c. 10 nM) displacement assay using membrane preparations from Sf9 cells expressing human H4R and co-expressed with Gαi2 and Gβ1γ2 subunits as described previously. Nonspecific binding was determined in the presence of unlabelled JNJ7777120 ([…]).

Data set [2] has as its target T2, hH4R (Homo sapiens, UniProt Q9H3N8). In words: cAMP accumulation assay (LANCE Ultra cAMP, CHO-K1 cells stably expressing hH4R). The class given is cell-based. Also noted: expressed in transfected cells. Particulars: for IC50: antagonist mode, forskolin 10 µM, histamine 140 nM, CHO-K1 hH4R cells, read-out: cAMP hH4R IC50 ± SEM; for Kb: calculated from IC50 by Leff–Dougall variant of Cheng–Prusoff equation, read-out: pKb cAMP ± SEM (converted). The method, then: Intrinsic activity via the Gα subunit was measured using a LANCE Ultra cAMP detection kit and CHO-K1 cells stably expressing hH4R. Adenyl cyclase was stimulated by forskolin (10 µM).
Intrinsic activity in G protein-dependent pathway was measured with homogenous TR-FRET immunoassay, using LANCE Ultra cAMP kit and CHO-K1 H4R cell line or γ-irradiated recombinant CHO-K1 H4R cells (all from PerkinElmer). […] If the CHO-K1 H4R cell line was used it had been cultivated in DMEM/F12 10% FBS 400 µg/mL geneticin and passaged three times a week. […] The antagonist activity was measured in a white, opaque, 384-well microplate (PerkinElmer) with a total volume of 20 µL. […] After incubation, 5 µL of europium chelate-labelled cAMP tracer and 5 µl of ULight-labelled anti-cAMP mAb working solutions were added, mixed and incubated for 1 h. TR-FRET signal was read using a microplate reader (PerkinElmer, Waltham, MA, USA).

Data set [3] concerns the target T2, hH4R. The data set is described as above. The class given is cell-based. Also noted: expressed in transfected cells. Particulars: antagonist mode.
Data set [4] addresses T2, hH4R. The data set is described as follows: β-arrestin recruitment assay (LiveBLAzer, Tango-H4-bla U2OS cells). The class given is cell-based. More on the design: expressed in transfected cells; host or cells: Tango-H4-bla U2OS cells. The conditions noted are these: for IC50 / β-arrestin hH4R % of max. Antagonist Activity at 10 µM: antagonist mode; for IC50: histamine 500 nM (EC80), Tango-H4-bla U2OS cells, read-out: β-arrestin hH4R IC50 ± SEM; for Kb: calculated from IC50 by Leff–Dougall variant of Cheng–Prusoff equation, read-out: pKb β-arrestin ± SEM (converted). The method, then: Compounds were tested using LiveBLAzer^TM assay and Tango-H4-bla U2OS cells, allowing the estimation of the percentage of β-arrestin recruitment in response to tested treatments.
All used media and reagents except DMSO and tested compounds were purchased from ThermoFisher Scientific, Waltham, MA, USA. DMSO was from CarlRoth (Karlsruhe, Germany) and histamine was from Sigma Aldrich (Darmstadt, Germany). […] The day before the experiment cells were collected from the culture flask with trypsin and seeded in 384 well black-wall, clear-bottom plate (PerkinElmer, Waltham, MA, USA) in concentration 10,000 cells/well in FreeStyle medium. After 24 h of incubation, the cells were checked under the microscope and the dilutions of tested compounds were prepared and added to the wells. In agonist mode compounds were added to the wells and plates were placed in the incubator (HERAcell240, Heraeus, Hanau, Germany) for 16 h. In antagonist mode, first, the compounds were added to the wells, plates were incubated for 30 min, then histamine solution (corresponding to EC80—500 nM) was added and plates were put in the incubator for 16 h. After this time β-lactamase substrate mixture was prepared and added to wells (8 µL/well). Cells were incubated for 2 h at room temperature in the dark then the signal was read using an EnSpire microplate reader (PerkinElmer, Waltham, MA, USA). Drawing of dose-dependent curves and IC50 calculation for compounds were made using GraphPad Prism 6 (GraphPad Software, San Diego, CA, USA).

The nature of data set [5]: PAMPA assay (blood-brain barrier permeability). The class given is in vitro ADME. Particulars: 200 µM, 5 h. The method, then: This test is a popular method for estimating the possibility of crossing BBB through passive transport. […] Caffeine was used as a standard well-permeable compound.
The Gentest^TM PAMPA Plate System, purchased from Corning (Tewksbury, MA, USA), was used for permeability evaluation. Caffeine (a reference) and the compound tested were dissolved in DMSO (10 mM stocks) and after dilution to 200 μM in PBS (pH 7.4), added to donor wells. Then, after incubation for 5 h at room temperature, concentrations of tested compounds in donor and acceptor wells were estimated by the mass spectra (LC/MS) method as described previously. The UPLC/MS Waters […] TQD system with the TQ Detector (Waters, Milford, CT, USA) was used for this detection. The assay was performed in triplicate. The permeability value (Pe) was calculated using the formula described by Chen et al..
(In PAMPA a lipid-coated filter parts donor from acceptor wells.)

T2 sequence (Q9H3N8 whole entry): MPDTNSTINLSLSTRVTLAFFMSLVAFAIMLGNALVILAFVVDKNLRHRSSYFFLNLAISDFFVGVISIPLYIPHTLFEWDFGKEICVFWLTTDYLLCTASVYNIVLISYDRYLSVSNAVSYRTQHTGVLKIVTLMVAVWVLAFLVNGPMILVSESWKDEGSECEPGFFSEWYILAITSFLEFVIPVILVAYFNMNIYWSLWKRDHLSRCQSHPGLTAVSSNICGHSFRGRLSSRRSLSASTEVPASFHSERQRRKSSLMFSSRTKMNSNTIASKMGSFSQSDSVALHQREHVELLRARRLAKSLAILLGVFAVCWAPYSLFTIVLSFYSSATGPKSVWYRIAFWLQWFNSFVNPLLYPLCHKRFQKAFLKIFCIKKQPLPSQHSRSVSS
T1 sequence (Q9H3N8 whole entry): as above

Compound `CCCCc1nc(N)nc(N2CCN(C)CC2)n1` [Compound 10, 4-Butyl-6-(4-methylpiperazin-1-yl)-1,3,5-triazin-2-amine] showed a melting point of 117 to 118 °C. Moreover, the Ki in data set [1] worked out at 192 nM. Further, in data set [2], the IC50 worked out at 445 ± 10 nM and the Kb is 158 nM. Also, the “cAMP hH4R % of max. Antagonist Activity at 10 µM” value (“cAMP hH4R %” below) in data set [3] was determined as 105%. For the same compound, in data set [4], the IC50 came to 82 ± 5 nM, the “β-arrestin hH4R % of max. Antagonist Activity at 10 µM” value (“β-arrestin hH4R %” for short) was 96% and the Kb is 13.5 nM.
Take `CN1CCN(c2nc(N)nc(C3CC3)n2)CC1` [Compound 2, 4-Cyclopropyl-6-(4-methylpiperazin-1-yl)-1,3,5-triazin-2-amine]: the melting point lay in the range of 156 to 159 °C. The compound also registered an inhibitory constant (Ki) in data set [1] of 574 nM. Further, in data set [2], the half-maximal inhibitory concentration (IC50) came to 847 ± 53 nM and the Kb is 302 nM. Also, the “cAMP hH4R %” value in data set [3] came to 99%. Moreover, in data set [4], the IC50 stood at 287 ± 30 nM, the “β-arrestin hH4R %” value was found to be 96% and the Kb is 47.9 nM.
The compound `CN1CCN(c2nc(N)nc(C3CCCCC3)n2)CC1` [Compound 5, 4-Cyclohexyl-6-(4-methylpiperazin-1-yl)-1,3,5-triazin-2-amine] returned a melting point of 133 to 138 °C. Moreover, the Ki in data set [1] is 432 nM. Moreover, in data set [2], the 50% inhibitory concentration (IC50) was 219 ± 24 nM and the Kb was 75.9 nM. Further, the “cAMP hH4R %” value in data set [3] turned out to be 98%. In data set [4], the half-maximal inhibitory concentration (IC50) came out at 101 ± 10 nM, the “β-arrestin hH4R %” value stood at 92% and the Kb is 16.6 nM.
Take `CC(C)CCc1nc(N)nc(N2CCN(C)CC2)n1` [Compound 14, 4-Isopentyl-6-(4-methylpiperazin-1-yl)-1,3,5-triazin-2-amine]: the melting point is 123 to 126 °C. In data set [1], this compound gave an inhibition constant (Ki) of 203 nM. Besides, in data set [2], the IC50 was determined as 43 ± 17 nM and the Kb is 13.8 nM. Also, the “cAMP hH4R %” value in data set [3] came out at 107%. In data set [4], the half-inhibitory concentration (IC50) was determined as 24 ± 3 nM, the “β-arrestin hH4R %” value came out at 101% and the Kb is 3.89 nM.
Take `CN1CCN(c2nc(N)nc(C3CCC3)n2)CC1` [Compound 3, 4-Cyclobutyl-6-(4-methylpiperazin-1-yl)-1,3,5-triazin-2-amine]: the melting point lay in the range of 127 to 132 °C. Besides, in data set [1], the Ki was ~200 nM and 200 nM. In addition, in data set [2], the IC50 turned out to be 104 ± 17 nM and the Kb is 37.2 nM. In data set [3], the “cAMP hH4R %” value came out at 109%. Besides, in data set [4], the IC50 is 100 ± 15 nM, the “β-arrestin hH4R %” value was 87% and the Kb is 16.6 nM.
Consider `Cn1c(=O)c2c(ncn2C)n(C)c1=O` [Caffeine], for which the “Mass Retention (R)” value in data set [5] and in data set [5] (listed as caffeine) was 1.54% in each case. The “Pe (permeability coefficient) ± SD” value in data set [5] (PBS pH 7.4, permeable if Pe > 1.5 × 10^−6 cm/s) is 9.78 ± 1.75 10^−6 cm/s.
For the compound `C=CCC(C)c1nc(N)nc(N2CCN(C)CC2)n1` (stereo not drawn) [Compound 17, 4-(4-Methylpiperazin-1-yl)-6-(pent-4-en-2yl)-1,3,5-triazin-2-amine], the melting point is 134 to 136 °C. Moreover, affinity in data set [1] was put at a Ki of 263 nM. In data set [2], the IC50 is 721 ± 70 nM and the Kb was 257 nM. For the same compound, in data set [3], the “cAMP hH4R %” value is listed as 94%. In data set [4], the IC50 was 744 ± 139 nM, the “β-arrestin hH4R %” value amounted to 92% and the Kb was 117 nM.
For `CN1CCN(c2nc(N)nc(C3CCCC3)n2)CC1` [Compound 4, 4-Cyclopentyl-6-(4-methylpiperazin-1-yl)-1,3,5-triazin-2-amine], the melting point is 163 to 169 °C. This compound had a Ki in data set [1] of 1240 nM. In data set [2], the IC50 stood at 102 ± 2 nM and the Kb was 36.3 nM. Moreover, the “cAMP hH4R %” value in data set [3] came out at 95%. Further, in data set [4], the IC50 stood at 68.8 ± 2 nM, the “β-arrestin hH4R %” value is given as 95% and the Kb is 11.5 nM.
`CN1CCN(c2nc(N)nc(CC3C=CCC3)n2)CC1` (stereo not drawn) [Compound 7, 4-(Cyclopent-2-enylmethyl)-6-(4-methylpiperazin-1-yl)-1,3,5-triazin-2-amine]: the melting point was 166 to 169 °C. The same compound came in with an inhibition constant (Ki) in data set [1] of 96 nM. Besides, in data set [2], the IC50 stood at 33 ± 2 nM and the Kb is 11.5 nM. Moreover, in data set [3], the “cAMP hH4R %” value was found to be 104%. For the same compound, in data set [4], the 50% inhibitory concentration (IC50) worked out at 14 ± 1 nM, the “β-arrestin hH4R %” value is 103% and the Kb is 2.34 nM.
The compound `C=CC(C)Cc1nc(N)nc(N2CCN(C)CC2)n1` (stereo not drawn) [Compound 18, 4-(2-Methylbut-3-enyl)-6-(4-methylpiperazin-1-yl)-1,3,5-triazin-2-amine] displayed a melting point of 113 to 115 °C. Also, in data set [1], the affinity corresponds to a Ki of 262 nM. In data set [2], the half-inhibitory concentration (IC50) was found to be 188 ± 45 nM and the Kb is 64.6 nM. Also, the “cAMP hH4R %” value in data set [3] came to 104%. Besides, in data set [4], the IC50 was found to be 66.6 ± 3 nM, the “β-arrestin hH4R %” value is recorded as 101% and the Kb was 11 nM.

The Ki is the dissociation constant of the complex between target and ligand, obtained from inhibition or displacement. A low value points to higher affinity. One may read the melting point as the temperature, or range, at which the solid turns liquid. Usually IC50 stands for the concentration at which inhibition is half-maximal.

The values are drawn from paper PMC10224356, “Trisubstituted 1,3,5-Triazines as Histamine H4 Receptor Antagonists with Promising Activity In Vivo” (Molecules, 2023).
